Positions of bridges follow the written chain, without caps; N, C: chain ends. Residues, ends and D or L forms follow the SMILES beside them.
Experiments:
ZO-1 = test: Tight junction protein mRNA expression in Salmonella-challenged IPEC-J2 cells, real-time PCR; assay type: cell-based; details: 6 h with recombinant MccJ25, then Salmonella for 2 h, n = 9
Description: (§1) IPEC-J2 cells were cultured with or without recombinant MccJ25 for 6 h and then treated with Salmonella for 2 h. Cells were collected, and relative mRNA expression was analyzed by real-time PCR. The data are the means ± SEMs of three independent experiments, n = 9. Different superscript lowercase letters within each group indicate significant differences (P < 0.05).

Claudin-1 = test: as above; assay type: cell-based; details: 6 h with recombinant MccJ25, then Salmonella for 2 h, n = 9
Description: as §1

S. Pullorum [1] = test: Antimicrobial activity in biological food products (skim milk, egg yolk, mincemeat extract); assay type: cell-based, Salmonella Pullorum; details: 4 × MIC, 37°C; for viable bacteria after 24 h in the three food products: SKM, SEY, SMS, data not shown; for CFU reduction after 24 h: inoculum 10^6 CFU/mL, 250 rpm, plate counts, n = 6
Description: (§2) To further investigate the effects of recombinant MccJ25 on Salmonella and E. coli O157:H7 in different biological food products, sterile skim milk, egg yolk and mincemeat (pork) extract were collected and used as described previously with minor modifications ([Sable et al., 2000]). The skim milk, egg and mincemeat samples were purchased from a Carrefour store in Beijing. Specimens were kept on ice packs in coolers until they reached the laboratory, where they were stored at 4°C. The skim milk (SKM) and mincemeat supernatant (SMS) were autoclave sterilized at 121°C for 20 min. After autoclaving, the SKM and SMS samples were stored at 4°C for further use. The eggs were sterilized with 75% ethanol and transferred into an exceptionally clean bench to collect the egg yolk (SEY). The SEY was diluted 1:1 with sterile distilled water. Biological product samples were mixed with a final concentration of 4 × MIC of recombinant MccJ25 solution in sterile saline water (0.85%). They were then inoculated with S. Pullorum, S. […] Sterilized saline water (SSW) with the recombinant MccJ25 was utilized for comparison. This assay was performed to obtain the desired quantity of cells. The mixtures were tested after 24 h of incubation at 37°C with shaking (250 rpm). After incubation, Salmonella species and E. coli O157:H7 were serially diluted with PBS and plated on LB and TSA agar. The plates were incubated at 37°C overnight to count colony. Colonies were counted to determine CFU/mL. The experiment was conducted with two replicates in three independent trials.

S. Typhimurium [2] = test: as above; assay type: cell-based, Salmonella Typhimurium; details: 4 × MIC, SKM, 37°C; for viable bacteria after 24 h in the three food products: SEY, SMS, data not shown
Description: as §2

S. Pullorum [3] = test: Antimicrobial activity in different growth phases, viable plate counting; assay type: cell-based, Salmonella Pullorum; details: LB, n = 6; for time to reduction to undetectable levels: early- or late-log phase cells, plate counts at 0, 12, 24, 48 h; for time to reduction to non-detectable levels: stationary phase cells, plate counts
Description: (§3) The effect of growth phase on the anti-Salmonella and -E. coli O157:H7 activity of recombinant MccJ25 was determined by the viable plate counting method, as described previously ([Ma et al., 2016]; [Fan et al., 2017]), with minor modifications. Cultures of the strains in the early-log phase, late-log phase and stationary phase were washed, concentrated and diluted with sterilized phosphate-buffered saline (PBS) to approximately 10^7 CFU/mL. Then, 1 mL was incubated individually in 9 mL of PBS to reach an approximate 10^6 CFU/mL final concentration. The bacterial cells were then inoculated into 5 mL of LB containing different concentrations of MccJ25 (0, 1 × MIC, 2 × MIC, and 4 × MIC). At 0, 12, 24, and 48 h post incubation, the cultures (0.1 mL) were serially diluted with PBS and plated on LB and TSA agar. The plates were incubated at 37°C overnight to count colony. Colonies were counted to determine CFU/mL. The experiment was conducted with two replicates in three independent trials.

S. Typhimurium [4] = test: as above; assay type: cell-based, Salmonella Typhimurium; details: LB, plate counts, n = 6; for time within which bacteria were killed: early and late-log phase cells
Description: as §3

E. coli O157:H7 = test: Antimicrobial activity (killing) curves; assay type: cell-based, Escherichia coli; details: 4 × MIC; log phase, ~5 × 10^4 CFU/mL in LB, 37°C; plate counts at 0, 2, 4, 6 h; n = 6
Description: To further address the activity of recombinant MccJ25, antimicrobial activity curves and Live/Dead viability assay were performed. A single colony of S. Pullorum CVCC1791, S. Typhimurium ATCC14082, and E. coli O157:H7 was inoculated into 5 mL of LB. The culture was then incubated at 37°C with shaking at 200 rpm overnight. The following day, the culture was diluted 1:100 in fresh LB and again incubated at 37°C with shaking at 200 rpm. For antimicrobial activity, the bacteria were grown until they reached log phase. Approximately 5 × 10^4 CFU/mL bacteria were inoculated into 2 mL of LB containing different concentrations of the recombinant MccJ25 (0, 1 × MIC, 2 × MIC, and 4 × MIC). The cultures (0.1 mL) were serially diluted with PBS and plated on LB and TSA agar at 0, 2, 4, and 6 h. The plates were incubated at 37°C overnight to count colony. Colonies were counted to determine CFU/mL. The experiment was conducted with two replicates in three independent trials.

S. Pullorum [5] = test: Live/Dead BacLight viability assay; assay type: cell-based, Salmonella Pullorum; details: at the MIC level, 2 h at 37°C, 5 × 10^4 CFU/mL in LB; fluorescence microscopy
Description: A Live/Dead BacLight Bacterial Viability Kit 7 (Molecular Probes, Inc., Eugene) was used to test bacterial viability. Briefly, 5 × 10^4 CFU/mL S. Pullorum, S. Typhimurium, and E. coli O157:H7 were inoculated into 1 mL of LB containing recombinant MccJ25 at the MIC level specific for each pathogen. Bacterial cultures were incubated at 37°C for 2 h and then incubated in the dark at ambient temperature with SYTO 9 and propidium iodide for 15 min. Bacteria were observed using a fluorescence microscope (EVOS XL Cell Imaging System).

CC[C@H](C)[C@H](NC(=O)CNC(=O)[C@@H](NC(=O)[C@H](Cc1ccccc1)NC(=O)[C@H](Cc1ccc(O)cc1)NC(=O)[C@@H]1CCC(=O)NCC(=O)NCC(=O)N[C@@H](C)C(=O)NCC(=O)N[C@@H](Cc2c[nH]cn2)C(=O)N[C@@H](C(C)C)C(=O)N2CCC[C@H]2C(=O)N1)C(C)C)C(=O)NCC(=O)N[C@H](C(=O)N1CCC[C@H]1C(=O)N[C@H](C(=O)N[C@@H](CO)C(=O)N[C@@H](Cc1ccccc1)C(=O)N[C@@H](Cc1ccc(O)cc1)C(=O)NCC(=O)O)[C@@H](C)CC)[C@@H](C)O [recombinant MccJ25, microcin J25] (GGAGHVPEYFVGIGTPISFYG-OH; lactam N-8 (inferred); C-terminus assumed)
mRNA expression of ZO-1 (ZO-1): significantly increased | mRNA expression of Claudin-1 (Claudin-1): significantly increased | viable bacteria after 24 h in the three food products (S. Pullorum [1]; inoculum 10^3 CFU/mL): no viable bacteria were detected | viable bacteria after 24 h in the three food products (S. Pullorum [1]; inoculum 10^4 CFU/mL): no bacteria were detected | CFU reduction after 24 h (S. Pullorum [1]; sterilized egg yolk (SEY), diluted 1:1): ~8 × 10^3 CFU/mL | CFU reduction after 24 h (S. Pullorum [1]; sterilized mincemeat supernatant (SMS)): ~7 × 10^3 CFU/mL | CFU reduction after 24 h (S. Pullorum [1]; sterilized skim milk (SKM)): approximately 10^4 CFU/mL | viable bacteria after 24 h in the three food products (S. Typhimurium [2]; inoculum 10^3 CFU/mL): no viable bacteria were detected | viable bacteria after 24 h in the three food products (S. Typhimurium [2]; inoculum 10^4 CFU/mL): no bacteria were detected | CFU reduction after 24 h (S. Typhimurium [2]; SEY, and SMS, inoculum 10^6 CFU/mL, plate counts, n = 6): approximately 10^3 CFU/mL | time to reduction to undetectable levels (S. Pullorum [3]; 8 μg/mL): ≤ 24 h | time to reduction to undetectable levels (S. Pullorum [3]; 4 × MIC): ≤ 12 h | time to reduction to non-detectable levels (S. Pullorum [3]; 8 μg/mL): ≤ 48 h | time to reduction to non-detectable levels (S. Pullorum [3]; 16 μg/mL): ≤ 24 h | time within which bacteria were killed (S. Typhimurium [4]; 2 × MIC): ≤ 48 h | time within which bacteria were killed (S. Typhimurium [4]; 4 × MIC): ≤ 24 h | time to reduction to non-detectable levels (S. Typhimurium [4]; stationary phase cells, 4 × MIC): 48 h | incubation time after which the pathogen was eliminated (killing curve) (E. coli O157:H7): 6 h | bactericidal activity, Live/Dead staining (SYTO 9 / propidium iodide) (S. Pullorum [5]): excellent bactericidal activity

Source: article PMC6718478, “A Comprehensive Antimicrobial Activity Evaluation of the Recombinant Microcin J25 Against the Foodborne Pathogens Salmonella and E. coli O157:H7 by Using a Matrix of Conditions” (Frontiers in Microbiology, 2019)
